Assay results: the supplement of paper PMC10307832

Key:
Assay in all cases: relative viability (nuclei count vs DMSO), 5 days (fraction); higher = more cells survive
[1] = compound: NC(=O)c1ccc(N(C(N)=O)c2c(F)cccc2F)nc1-c1ccc(F)cc1F [VX-702] + COc1cccc2cc(-c3nc([C@H]4CC[C@H](C(=O)O)CC4)n4ncnc(N)c34)[nH]c12 [OSI-027] (partner 0.5 µM)
How it was run: (§1)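 Values are medians from duplicate plates. Each reflects relative viability, defined as the nuclei count of treated wells over that of vehicle wells. Lung cancer cell lines in 1536-well plates were pin-tool dosed one day after seeding with one drug alone or with a fixed anchor-drug dose plus five library-drug doses (not always all listed) in √10 steps, then fixed, stained and imaged at 4× after 5 days.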

[2] = compound: CC(C)(C)c1nc(-c2cccc(NS(=O)(=O)c3c(F)cccc3F)c2F)c(-c2ccnc(N)n2)s1 [Dabrafenib] + CCNC(=O)c1noc(-c2cc(C(C)C)c(O)cc2O)c1-c1ccc(CN2CCOCC2)cc1 [Luminespib] (partner 0.01 µM)
How it was run: as §1

[3] = compound: NC(=O)c1ccc(N(C(N)=O)c2c(F)cccc2F)nc1-c1ccc(F)cc1F [VX-702] + Cc1cc(Nc2cc(N3CCN(C)CC3)nc(Sc3ccc(NC(=O)C4CC4)cc3)n2)n[nH]1 [Tozasertib] (partner 0.1 µM)
How it was run: as §1

[4] = compound: CC(C)(C)c1nc(-c2cccc(NS(=O)(=O)c3c(F)cccc3F)c2F)c(-c2ccnc(N)n2)s1 [Dabrafenib] + O=C(c1cc(Cc2n[nH]c(=O)c3ccccc23)ccc1F)N1CCN(C(=O)C2CC2)CC1 [Olaparib] (partner 8 µM)
How it was run: as §1

[5] = compound: NC(=O)c1ccc(N(C(N)=O)c2c(F)cccc2F)nc1-c1ccc(F)cc1F [VX-702] + CCNC(=O)c1noc(-c2cc(C(C)C)c(O)cc2O)c1-c1ccc(CN2CCOCC2)cc1 [Luminespib] (partner 0.01 µM)
How it was run: as §1

## SW 900
[1]; first compound 0.02 µM
  relative viability: 0.565
[1]; first compound 0.2 µM
  relative viability: 0.676
[1]; first compound 0.6325 µM
  relative viability: 0.592
[1]; first compound 2 µM
  relative viability: 0.765
[2]; first compound 0.009487 µM
  relative viability: 0.186
[2]; first compound 0.03 µM
  relative viability: 0.166
[2]; first compound 0.3 µM
  relative viability: 0.214
[3]; first compound 0.02 µM
  relative viability: 0.87
[3]; first compound 0.2 µM
  relative viability: 0.494
[3]; first compound 0.6325 µM
  relative viability: 0.621
[3]; first compound 2 µM
  relative viability: 0.636
[4]; first compound 0.009487 µM
  relative viability: 0.93
[4]; first compound 0.09487 µM
  relative viability: 0.775
[4]; first compound 0.3 µM
  relative viability: 0.984
[5]; first compound 0.02 µM
  relative viability: 0.202
[5]; first compound 0.2 µM
  relative viability: 0.188
[5]; first compound 0.6325 µM
  relative viability: 0.15
[5]; first compound 2 µM
  relative viability: 0.16
